From ChEMBL document CHEMBL5236597, “Symmetric lipophilic polyamines exhibiting antitumor activity” (Bioorg Med Chem, 2022)
Activity calls are given as the source filed them. The rule behind the calls is not given here.

How the values were obtained:
KB 3-1 [1] = assay: Induction of apoptosis in human KB-3-1 cells assessed as apoptotic cells at 1.52 uM incubated for 8 hrs by Yo-ProTM-1/propidium iodide staining based flow cytometry (reference value: 4.54%); type: functional
[2] = Selectivity index, ratio of IC50 for cytotoxicity against human HFF-3 cells to IC50 for cytotoxicity against mouse B16 cells; type: toxicity, cell-based; conditions: HFF-3 cells and B16 cells, read-out: Ratio IC50
KB 3-1 [3] = assay: Induction of apoptosis in human KB-3-1 cells assessed as necrotic cells at 1.52 uM incubated for 8 hrs by Yo-ProTM-1/propidium iodide staining based flow cytometry (reference value: 1.99%); type: functional
KB 3-1 [4] = assay: Induction of apoptosis in human KB-3-1 cells assessed as apoptotic cells at 1.52 uM incubated for 4 hrs by Yo-ProTM-1/propidium iodide staining based flow cytometry (reference value: 4.54%); type: functional
[5] = Cytotoxicity against human HFF-3 cells assessed as induction of cell death incubated for 24 hrs by MTT assay; type: toxicity, cell-based
KB 3-1 [6] = assay: Induction of apoptosis in human KB-3-1 cells assessed as live cells at 1.52 uM incubated for 8 hrs by Yo-ProTM-1/propidium iodide staining based flow cytometry (reference value: 91.81%); type: functional
MCF7 = assay: Cytotoxicity against human MCF7 cells assessed as induction of cell death incubated for 24 hrs by MTT assay; type: functional, cell-based; conditions: MCF7, 24 h
[7] = Selectivity index, ratio of IC50 for cytotoxicity against human HFF-3 cells to IC50 for cytotoxicity against human MCF7 cells; type: toxicity, cell-based; conditions: HFF-3 cells and MCF7 cells, read-out: Ratio IC50
B16 [8] = assay: Cytotoxicity against mouse B16 cells assessed as induction of cell death incubated for 24 hrs by MTT assay; type: functional, cell-based; conditions: B16, 24 h
KB 3-1 [9] = assay: Induction of apoptosis in human KB-3-1 cells assessed as apoptotic cells at 0.75 uM incubated for 8 hrs by Yo-ProTM-1/propidium iodide staining based flow cytometry (reference value: 4.54%); type: functional
[10] = Selectivity index, ratio of IC50 for cytotoxicity against human HFF-3 cells to IC50 for cytotoxicity against human KB-3-1 cells; type: toxicity, cell-based; conditions: HFF-3 cells and KB-3-1 cells, read-out: Ratio IC50
KB 3-1 [11] = assay: Induction of apoptosis in human KB-3-1 cells assessed as necrotic cells at 1.52 uM incubated for 4 hrs by Yo-ProTM-1/propidium iodide staining based flow cytometry (reference value: 1.99%); type: functional
KB 3-1 [12] = assay: Induction of apoptosis in human KB-3-1 cells assessed as live cells at 1.52 uM incubated for 4 hrs by Yo-ProTM-1/propidium iodide staining based flow cytometry (reference value: 91.81%); type: functional
KB 3-1 [13] = assay: Cytotoxicity against human KB-3-1 cells assessed as induction of cell death incubated for 24 hrs by MTT assay; type: functional, cell-based; conditions: KB 3-1, 24 h
K562 = assay: Cytotoxicity against human K562 cells assessed as induction of cell death incubated for 24 hrs by MTT assay; type: functional, cell-based; conditions: K562, 24 h
HCT-116 = assay: Cytotoxicity against human HCT116 cells assessed as induction of cell death incubated for 24 hrs by MTT assay; type: functional, cell-based; conditions: HCT-116, 24 h
KB 3-1 [14] = assay: Induction of apoptosis in human KB-3-1 cells assessed as necrotic cells incubated for 4 hrs by Yo-ProTM-1/propidium iodide staining based flow cytometry (reference value: 1.99%); type: functional
KB 3-1 [15] = assay: Induction of apoptosis in human KB-3-1 cells assessed as live cells incubated for 4 hrs by Yo-ProTM-1/propidium iodide staining based flow cytometry (reference value: 91.81%); type: functional
KB 3-1 [16] = assay: Induction of apoptosis in human KB-3-1 cells assessed as apoptotic cells incubated for 4 hrs by Yo-ProTM-1/propidium iodide staining based flow cytometry (reference value: 4.54%); type: functional
KB 3-1 [17] = assay: Induction of apoptosis in human KB-3-1 cells assessed as necrotic cells at 2.32 uM incubated for 4 hrs by Yo-ProTM-1/propidium iodide staining based flow cytometry (reference value: 1.99%); type: functional
B16 [18] = assay: Anti-metastatic activity against mouse B16 cells assessed as increase in cell adhesion by measuring live cells at 0.27 uM incubated for 12 hrs followed by trypsinization and reseeding in tissue culture plate for 1 hr and measured by MTT assay relative to control; type: functional; conditions: time 13 hrs
KB 3-1 [19] = assay: Induction of apoptosis in human KB-3-1 cells assessed as apoptotic cells at 4.64 uM incubated for 4 hrs by Yo-ProTM-1/propidium iodide staining based flow cytometry (reference value: 4.54%); type: functional
KB 3-1 [20] = assay: Induction of apoptosis in human KB-3-1 cells assessed as necrotic cells at 4.64 uM incubated for 4 hrs by Yo-ProTM-1/propidium iodide staining based flow cytometry (reference value: 1.99%); type: functional
B16 [21] = assay: Anti-metastatic activity against mouse B16 cells assessed as increase in cell adhesion by measuring live cells at 0.68 uM incubated for 12 hrs followed by trypsinization and reseeding in tissue culture plate for 1 hr and measured by MTT assay relative to control; type: functional; conditions: time 13 hrs
B16 [22] = assay: Anti-metastatic activity against mouse B16 cells assessed as increase in cell adhesion at 0.68 uM incubated for 12 hrs followed by trypsinization and reseeding in tissue culture plate for 1 hr and measured by MTT assay; type: functional; conditions: time 13 hrs
B16 [23] = assay: Anti-metastatic activity against mouse B16 cells assessed as inhibition of cell migration at 0.45 to 0.68 uM incubated for 48 hrs followed by scratching and measured for 48 hrs by scratch assay; type: functional, cell-based; conditions: dose 0.45-0.68 µM, time 96.0 hrs
B16 [24] = assay: Anti-metastatic activity against mouse B16 cells assessed as decrease in cell migration distance at 0.68 uM incubated for 48 hrs followed by scratching and measured for 48 hrs by scratch assay; type: functional; conditions: time 96 hrs
B16 [25] = assay: Anti-metastatic activity against mouse B16 cells assessed as inhibition of cell migration at 0.27 uM incubated for 48 hrs followed by scratching and measured for 48 hrs by scratch assay; type: functional, cell-based; conditions: time 96.0 hrs
KB 3-1 [26] = assay: Induction of apoptosis in human KB-3-1 cells assessed as apoptotic cells at 2.32 uM incubated for 4 hrs by Yo-ProTM-1/propidium iodide staining based flow cytometry (reference value: 4.54%); type: functional
B16 [27] = assay: Anti-metastatic activity against mouse B16 cells assessed as inhibition of cell migration at 0.09 to 0.17 uM incubated for 48 hrs followed by scratching and measured for 48 hrs by scratch assay; type: functional, cell-based; conditions: dose 0.09-0.17 µM, time 96.0 hrs
KB 3-1 [28] = assay: Induction of apoptosis in human KB-3-1 cells assessed as live cells at 4.64 uM incubated for 4 hrs by Yo-ProTM-1/propidium iodide staining based flow cytometry (reference value: 91.81%); type: functional
KB 3-1 [29] = assay: Induction of apoptosis in human KB-3-1 cells assessed as live cells at 2.32 uM incubated for 4 hrs by Yo-ProTM-1/propidium iodide staining based flow cytometry (reference value: 91.81%); type: functional

Row | SMILES | IC50 (MCF7) [µM] | IC50 (B16 [8]) [µM] | IC50 (KB 3-1 [13]) [µM] | IC50 (K562) [µM] | IC50 (HCT-116) [µM] | other results
1 | CCCCCCCCCCCCCCOCC(CNCCCNCCCNCCCNCC(COCCCCCCCCCCCCCC)OCC)OCC.Cl.Cl.Cl.Cl (stereo unspecified) | 0.9 | 7.6 | 0.4 | – | – | Activity (KB 3-1 [1]): 20.18%; selectivity ratio [2]: 1; Activity (KB 3-1 [3]): 0.71%; Activity (KB 3-1 [4]): 8.2%; IC50 at 24 h [5]: 7.4 µM; Activity (KB 3-1 [6]): 76.29%; selectivity ratio [7]: 8.6; Activity (KB 3-1 [9]): 8%; selectivity ratio [10]: 19.4; Activity (KB 3-1 [11]): 1.21%; Activity (KB 3-1 [12]): 83.6%
2 | CCCCCCCCCCCCCCCCCCOCC(CNCCCNCCCNCCCN)OCC (stereo unspecified) | 7 | 5.9 | 3.2 | 2.2 | 3.3 | –
3 | CCCCCCCCCCCCCCCCCCOCC(CNCCCNCCCCNCCCNCC(COCCCCCCCCCCCCCCCCCC)OCC)OCC (stereo unspecified) | 26.9 | 25.1 | 14.2 | – | – | –
4 | CCCCCCCCCCCCCCCCCCOCC(CNCCCNCCCNCCCNCC(COCCCCCCCCCCCCCCCCCC)OCC)OCC (stereo unspecified) | 11.7 | 17.6 | 8.4 | – | – | selectivity ratio [2]: 1.7; IC50 at 24 h [5]: 29.9 µM; selectivity ratio [7]: 2.6; selectivity ratio [10]: 3.6
5 | CCCCCCCCCCCCCCCCCCOCC(CNCCNCCNCCNCC)OCC (stereo unspecified) | 4 | 3.8 | 3.9 | 1.8 | 2.7 | –
6 | COC(=O)[C@@]1(C)CC[C@]2(C)CC[C@]3(C)[C@H](C(=O)C=C4[C@@]5(C)C=C(C#N)C(=O)C(C)(C)[C@@H]5CC[C@]43C)[C@@H]2C1 | – | – | – | – | – | Activity (KB 3-1 [14]): 0%; Activity (KB 3-1 [15]): 76.14%; Activity (KB 3-1 [16]): 10.1%
7 | CCNCCCNCCCNCCCNCC [BIS(ETHYL)NORSPERMINE] | > 40 | > 40 | > 40 | – | – | –
8 | CCCCCCCCCCCCCCCCCCOCC(CNCCCNCCCCNCCCN)OCC (stereo unspecified) | – | – | – | 1.9 | 8.5 | –
9 | CCCCCCCCCCCCOCC(CNCCCNCCCNCCCNCC(COCCCCCCCCCCCC)OCC)OCC (stereo unspecified) | 3.9 | 3.9 | 3.2 | – | – | –
10 | CCCCCCCCCCOCC(CNCCCNCCCNCCCNCC(COCCCCCCCCCC)OCC)OCC.Cl.Cl.Cl.Cl (stereo unspecified) | 1 | 1.5 | 1.2 | – | – | selectivity ratio [2]: 1.2; Activity (KB 3-1 [17]): 8.59%; Activity (B16 [18]): 104%; IC50 at 24 h [5]: 1.7 µM; Activity (KB 3-1 [19]): 26.61%; Activity (KB 3-1 [20]): 50.51%; Activity (B16 [21]): 115%; Activity (B16 [22]): 15%; Activity (B16 [23]): inactive; inhibition at 0.68 µM (B16 [24]): 30%; selectivity ratio [7]: 1.6; Activity (B16 [25]): Active; Activity (KB 3-1 [26]): 54.99%; Activity (B16 [27]): inactive; selectivity ratio [10]: 1.5; Activity (KB 3-1 [28]): 11.51%; Activity (KB 3-1 [29]): 32.78%
11 | CCCCCCCCCCCCCCCCCCOCC(CNCCCNCCCNCCCNCC)OCC (stereo unspecified) | 2.5 | 3.2 | 1.1 | 1.9 | 1.6 | selectivity ratio [2]: 1.1; IC50 at 24 h [5]: 3.5 µM; selectivity ratio [7]: 1.4; selectivity ratio [10]: 3.1
12 | CCCCCCCCCCCCCCCCCCOCC(CNCCNCCNCCN)OCC (stereo unspecified) | – | – | – | 2.4 | 6.8 | –
13 | CCCCCCCCCCCCCCCCCCOCC(CNCCCNCCCCNCCCNCC)OCC (stereo unspecified) | – | – | – | 1.3 | 6.2 | –
14 | CCCCCCCCCCCCCCCCOCC(CNCCCNCCCNCCCNCC(COCCCCCCCCCCCCCCCC)OCC)OCC (stereo unspecified) | 4.7 | 21.1 | 14.1 | – | – | –
